Holding throughout (format): in vivo
Assay [1] relates to A. retroflexus. Put plainly: Herbicidal activity by field soil treatment (Test example 2). Details: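 index 0 to 10 in 10% steps of herbicidal effect with 10 meaning complete death and 0 below 10%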. The note with it: 1000 g effective component per hectare, day 21 after the treatment. The method in brief:
(§1)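 Herbicidal effect is rated by fixed criteria on day 21 post-treatment. Before that, pots of field soil holding freshly sown, soil-covered seeds receive a surface spray of diluted wettable powder (1000 g per hectare effective component, spray volume 1000 liters per hectare) and are kept in a greenhouse.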

For assay [2], the system named is Echinochloa crus-galli. The description is as above. Details: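 index 0 to 10 in 10% steps of herbicidal effect with 10 meaning complete death and 0 below 10%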. The note with it: 1000 g effective component per hectare, day 21 after the treatment. The method in brief: as §1
In assay [3] the test system is Indian millet. The description is as above. The arrangement: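 index 0 to 10 in 10% steps of herbicidal effect with 10 meaning complete death and 0 below 10%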. The conditions noted are these: 1000 g effective component per hectare, day 21 after the treatment. The method in brief:
as §1

Assay [4] has as its system A. retroflexus. The assay can be described thus: Herbicidal activity by field foliage treatment (Test example 3). The note with it: 1000 g effective component per hectare, day 14 after the treatment. The arrangement: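 index 0 to 10 in 10% steps of herbicidal effect with 10 meaning complete death and 0 below 10%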. The method in brief: (§2)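 Herbicidal effect is rated on a scoring scale 14 days after treatment. Seedlings raised 2 weeks in field soil under glass receive an overall foliar spray of wettable powder diluted in water, giving 1000 g active component per hectare.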

The subject of assay [5] is Indian millet. The description is as above. The arrangement: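 index 0 to 10 in 10% steps of herbicidal effect with 10 meaning complete death and 0 below 10%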. The conditions noted are these: 1000 g effective component per hectare, day 14 after the treatment. Put shortly: as §2
The subject of assay [6] is Echinochloa crus-galli. The description is as above. Details: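 index 0 to 10 in 10% steps of herbicidal effect with 10 meaning complete death and 0 below 10%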. The conditions noted are these: 1000 g effective component per hectare, day 14 after the treatment. Put shortly:
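Potted field-soil plants grown 2 weeks in a greenhouse were sprayed over the whole foliage with diluted wettable powder at 1000 L/ha, delivering 1000 g active ingredient per hectare. Herbicidal effect scored by visual criteria 14 days after treatment.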

Assay [7] has as its system Setaria viridis. The assay is described as above. The conditions noted are these: 1000 g effective component per hectare, day 14 after the treatment. The procedure:
Test example 3 Test for Determining Herbicidal Activity by Field Foliage Treatment A 80 cm^2 wide plastic pot was filled with a field soil and seeds of each of Indian millet and A. retroflexus were sowed and then incubated for 2 weeks in a green house. The wettable powder produced with reference to the Formulation example 1 was diluted water, and applied from the air to entire body of the plant as foliage treatment by using a small sprayer in an amount of 1000 liters per hectare so that the effective component is 1000 g per hectare. After that, the plants were cultivated in a greenhouse, and on day 14 after the treatment, evaluation was made by the criteria described in Table 72 for determining the herbicidal effects.

For assay [8], the system named is Echinochloa oryzicola. Put plainly: Herbicidal activity by paddy field soil treatment (Test Example 1). The arrangement: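 index 0 to 10 in 10% steps of herbicidal effect with 10 meaning complete death and 0 below 10%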. The conditions noted are these: 1000 g of effective component per hectare, evaluated on day 21 after the treatment, criteria of Table 72. The method in brief:
(§3)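 Herbicidal effect is rated on a graded scale 21 days after treatment. Treatment: wettable powder diluted in water, applied onto the flood water (3 cm deep) of sown paddy-soil pots on the day after sowing, 1000 g active component per hectare, greenhouse cultivation.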

In assay [9] the test system is Monochoria vaginalis. The assay is described as above. Details: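 index 0 to 10 in 10% steps of herbicidal effect with 10 meaning complete death and 0 below 10%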. The conditions noted are these: 1000 g of effective component per hectare, evaluated on day 21 after the treatment, criteria of Table 72. The method in brief:
as §3

Assay [10] has as its system Scirpus juncoides Rocxb. Described as above. The arrangement: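 index 0 to 10 in 10% steps of herbicidal effect with 10 meaning complete death and 0 below 10%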. The conditions noted are these: applied on water surface, 1000 g of effective component per hectare, day 21 after the treatment. The method in brief:
as §3
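Throughout, for herbicidal effect index, Setaria viridis: index 0 to 10 in 10% steps of herbicidal effect with 10 meaning complete death and 0 below 10%.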

For the molecule `COc1c(F)cc(-n2c(=O)c(C(=O)C3=C(O)CCCC3=O)nn(C)c2=O)cc1F` [Compound I-167], the “herbicidal effect index, Amaranthus retroflexus” value in assay [1] and in [4] was 10 in each case. Further, the “herbicidal effect index, Echinochloa crus-galli” value in assay [2] is 8; in assay [6] it was 10. The “herbicidal effect index, Abutilon theophrasti” value in assay [3] and in [5] was 10 in each case. In addition, in assay [7], the “herbicidal effect index, Setaria viridis” value turned out to be 8.
As for `CC(CCn1c(=O)c(C(=O)C2=C(O)CCCC2=O)nn(C)c1=O)=C(F)F` [I-27], the “Herbicidal effects index number, Echinochloa oryzicola” value in assay [8] came to 10. For the same molecule, the “Herbicidal effects index number, Monochoria vaginalis” value in [9] amounted to 10. Also, the “herbicidal effect index, S. juncoides Rocxb.” value in assay [10] amounted to 10. For the same molecule, the “herbicidal effect index, Amaranthus retroflexus” value in assay [1] is listed as 10; in assay [4] it was 9. The “herbicidal effect index, Echinochloa crus-galli” value in assay [2] was 10; in assay [6], 9. The “herbicidal effect index, Abutilon theophrasti” value is 10 in assay [3] and 9 in assay [5]. The “herbicidal effect index, Setaria viridis” value in assay [7] is 6.
In the case of `CSCn1c(=O)c(C(=O)C2=C(O)CCCC2=O)nn(C)c1=O` [I-43], in assay [8], the “Herbicidal effects index number, Echinochloa oryzicola” value is 10. In assay [9], the “Herbicidal effects index number, Monochoria vaginalis” value was 10. Also, the “herbicidal effect index, S. juncoides Rocxb.” value in assay [10] came out at 10. The “herbicidal effect index, Amaranthus retroflexus” value in [1] and in [4] was 10 each time. The figures for the “herbicidal effect index, Echinochloa crus-galli” value in [2] and in assay [6] were 10 and 8, respectively. The “herbicidal effect index, Abutilon theophrasti” value in assay [5] is 9. The “herbicidal effect index, Setaria viridis” value in [7] was 8.
In the case of `COc1ccccc1-n1c(=O)c(C(=O)C2=C(O)CCCC2=O)nn(C)c1=O` [I-60], the “Herbicidal effects index number, Echinochloa oryzicola” value in assay [8] is given as 10. Further, the “Herbicidal effects index number, Monochoria vaginalis” value in [9] turned out to be 10. Also, in [10], the “herbicidal effect index, S. juncoides Rocxb.” value amounted to 10. Besides, the “herbicidal effect index, Amaranthus retroflexus” value in [1] and in assay [4] was 10 in each case. Also, the “herbicidal effect index, Echinochloa crus-galli” value in assay [2] and in assay [6] was 10 each time. The “herbicidal effect index, Abutilon theophrasti” value in [3] and in assay [5] was 10 throughout. In addition, the “herbicidal effect index, Setaria viridis” value in assay [7] worked out at 9.
Regarding `Cn1nc(C(=O)C2=C(O)CCCC2=O)c(=O)n(-c2ccc(F)cc2F)c1=O` [I-78], in [8], the “Herbicidal effects index number, Echinochloa oryzicola” value was determined as 10. The “Herbicidal effects index number, Monochoria vaginalis” value in [9] was found to be 10. Moreover, the “herbicidal effect index, S. juncoides Rocxb.” value in assay [10] is 10. Also, the “herbicidal effect index, Amaranthus retroflexus” value in assay [1] and in assay [4] was 10 throughout. For the same molecule, the “herbicidal effect index, Echinochloa crus-galli” value in [2] and in assay [6] was 10 in each case. Moreover, the “herbicidal effect index, Abutilon theophrasti” value in assay [3] and in [5] was 10 throughout. Further, in assay [7], the “herbicidal effect index, Setaria viridis” value was determined as 10.
Regarding `Cc1ccc(-n2c(=O)c(C(=O)C3=C(O)CCCC3=O)nn(C)c2=O)c(C)c1` [I-90], in [8], the “Herbicidal effects index number, Echinochloa oryzicola” value was determined as 9. In addition, the “Herbicidal effects index number, Monochoria vaginalis” value in assay [9] stood at 10. Further, in assay [10], the “herbicidal effect index, S. juncoides Rocxb.” value was 10. Also, the “herbicidal effect index, Amaranthus retroflexus” value in assay [1] and in [4] was 10 throughout. The “herbicidal effect index, Echinochloa crus-galli” value in [2] and in assay [6] was 8 throughout. Moreover, the “herbicidal effect index, Abutilon theophrasti” value in [3] is 10; in assay [5], 9. In addition, the “herbicidal effect index, Setaria viridis” value in [7] was 7.
As for `Cc1ccc(Cl)cc1-n1c(=O)c(C(=O)C2=C(O)CCCC2=O)nn(C)c1=O` [I-138], in assay [8], the “Herbicidal effects index number, Echinochloa oryzicola” value was found to be 10. The “Herbicidal effects index number, Monochoria vaginalis” value in [9] is 10. In addition, the “herbicidal effect index, S. juncoides Rocxb.” value in [10] was 10. Besides, the “herbicidal effect index, Amaranthus retroflexus” value in [1] and in assay [4] was 10 in each case. In addition, the figures for the “herbicidal effect index, Echinochloa crus-galli” value in assay [2] and in assay [6] were 9 and 8, respectively. Further, the “herbicidal effect index, Abutilon theophrasti” value in assay [3] and in [5] was 9 in each case. Besides, in assay [7], the “herbicidal effect index, Setaria viridis” value is reported as 8.
Regarding `Cn1nc(C(=O)O)c(=O)n(-c2cc(Cl)c(Cl)c(Cl)c2)c1=O` [V-358], in [8], the “Herbicidal effects index number, Echinochloa oryzicola” value is reported as 10. The “Herbicidal effects index number, Monochoria vaginalis” value in [9] worked out at 10. Moreover, in [10], the “herbicidal effect index, S. juncoides Rocxb.” value was 10. The “herbicidal effect index, Amaranthus retroflexus” value in assay [1] and in assay [4] was 10 in each case. Further, the “herbicidal effect index, Abutilon theophrasti” value in [3] and in [5] was 10 in each case. Besides, in assay [6], the “herbicidal effect index, Echinochloa crus-galli” value was 8. Also, in assay [7], the “herbicidal effect index, Setaria viridis” value was 10.
`Cn1nc(C(=O)O)c(=O)n(-c2cc(C(F)(F)F)cc(C(F)(F)F)c2)c1=O` [V-364]: the “Herbicidal effects index number, Echinochloa oryzicola” value in [8] amounted to 10. Further, the “Herbicidal effects index number, Monochoria vaginalis” value in [9] turned out to be 10. Besides, the “herbicidal effect index, S. juncoides Rocxb.” value in assay [10] is 10. The “herbicidal effect index, Amaranthus retroflexus” value was 8 in assay [1] and 10 in assay [4]. For the same molecule, the “herbicidal effect index, Abutilon theophrasti” value in assay [3] was 7; in [5] it was 10. Further, the “herbicidal effect index, Echinochloa crus-galli” value in [6] was 8. The “herbicidal effect index, Setaria viridis” value in assay [7] is 9.
For `Cn1nc(C(=O)C2=C(O)C(C)(C)C(=O)C(C)(C)C2=O)c(=O)n(-c2ccccc2)c1=O` [VI-1], the “Herbicidal effects index number, Echinochloa oryzicola” value in assay [8] was 10. In assay [9], the “Herbicidal effects index number, Monochoria vaginalis” value turned out to be 10. In addition, in [10], the “herbicidal effect index, S. juncoides Rocxb.” value amounted to 10. Also, the “herbicidal effect index, Amaranthus retroflexus” value in assay [1] and in assay [4] was 10 throughout. Moreover, the “herbicidal effect index, Abutilon theophrasti” value in [3] and in [5] was 10 each time. The “herbicidal effect index, Echinochloa crus-galli” value in assay [6] stood at 10. Also, the “herbicidal effect index, Setaria viridis” value in [7] is listed as 10.
On to `Cn1nc(C(=O)C2=C(O)CC(C)(C)CC2=O)c(=O)n(-c2ccccc2)c1=O` [VI-6], for which the “Herbicidal effects index number, Echinochloa oryzicola” value in [8] is 10. Further, the “Herbicidal effects index number, Monochoria vaginalis” value in assay [9] turned out to be 10. In addition, the “herbicidal effect index, S. juncoides Rocxb.” value in [10] came to 10. Besides, the “herbicidal effect index, Amaranthus retroflexus” value in assay [1] and in [4] was 10 each time. For the same molecule, the “herbicidal effect index, Abutilon theophrasti” value worked out at 9 in assay [3] and 10 in assay [5]. In addition, the “herbicidal effect index, Echinochloa crus-galli” value in assay [6] is given as 8. In [7], the “herbicidal effect index, Setaria viridis” value came to 10.
